Consider ten molecules from PMC10855879, “Formulation Studies with Cyclodextrins for Novel Selenium NSAID Derivatives” (International Journal of Molecular Sciences, 2024).

A short description of data set [1]: Water solubility by quantitative 1H-NMR in D2O, alone or with cyclodextrin. Type of data set: physicochemical. To be noted: for solubility: 25 °C, thermodynamic from solid, 298 K; for Improvement of water solubility after exposure to β- and γ-CD (in words): complexes versus compounds alone. The method, then: For all the Se-NSAID derivatives, the formation of inclusion complexes either with β- or γ-CDs was evaluated by quantitative proton nuclear magnetic resonance (^1H-NMR) spectroscopy (Figures S1–S40 in Supplementary Materials). The election for such CDs is based on the fact that β-CD is one of the most frequently used CDs for encapsulating NSAIDs. Additionally, given the size of the studied molecules, a larger CD such as γ-CDs was also evaluated.
The experimental formation of inclusion complexes with either β-CD or γ-CD was evaluated via quantitative ^1H-NMR spectroscopy. This method is based on the consideration that the integration for a given signal that is selected as a marker for a given compound is proportional to its concentration. Consequently, solutions of 0.5 mL in D2O (≥99.85% in deuterated component) with an excess of each compound were prepared, along with either 4 mg of dimethyl sulfone (as internal standard) or with the corresponding CD at 10 mM. ^1H-NMR spectra were recorded at 298 K on a Bruker Avance Neo at a proton resonance frequency of 400 MHz. The solubilities were calculated considering the ratio between the area of the peaks belonging to the internal standard or the CDs and the different hydrogens of the Se-NSAID derivatives.

The subject of a further data set is colon cancer. The arrangement: method as in PMID 37759969. To be noted: in vitro and in vivo; cited from earlier work.
Where [2] appears, read: water, D2O, compound alone, dimethyl sulfone internal standard, read-out: Water Solubility, Compound.
[3] abbreviates: D2O with β-cyclodextrin, aqueous with cosolvent or surfactant or cyclodextrin, D2O, β-CD 10 mM, read-out: Water Solubility, Compound + β-CD.
The mark [4] stands for this setting: D2O with γ-cyclodextrin, aqueous with cosolvent or surfactant or cyclodextrin, D2O, γ-CD 10 mM, read-out: Water Solubility, Compound + γ-CD.

Values after ≈ are worked out from the molar mass of the structure shown. “Also recorded” adds a separate entry of the source. Like-named read-outs stand apart in the source and are kept apart here. Some results are limits rather than exact numbers.

One may read the solubility as the concentration that dissolves in the medium under given conditions. For `COc1ccc2cc(C(C)C(=O)[Se]CCC#N)ccc2c1` (centres unmarked) [I.3e], the results for the solubility in data set [1] (setting [2]), in data set [1] (setting [3]) and in data set [1] (setting [4]) were 9.7 µM (≈ 3.36 µg/mL), 992 µM and 273 µM, respectively. Also, the “Improvement of water solubility after exposure to β- and γ-CD (in words)” value in data set [1] is “remarkable improvement; also recorded: remarkable increase; also recorded: almost two orders of magnitude”.
On to `COc1ccc2c(c1)c(CC(=O)[Se]CC(=O)O)c(C)n2C(=O)c1ccc(Cl)cc1` [I.4a], for which the solubility in data set [1] (setting [2]) came out at 22.4 µM (≈ 10.7 µg/mL); in data set [1] (setting [3]), 56.5 µM; in data set [1] (setting [4]), 52.4 µM.
As to `COC(=O)C[Se]C(=O)Cc1c(C)n(C(=O)c2ccc(Cl)cc2)c2ccc(OC)cc12` [I.4b], the solubility in data set [1] (setting [2]) amounted to 12 µM (≈ 5.91 µg/mL); in data set [1] (setting [3]), 157 µM; in data set [1] (setting [4]) it was 43.9 µM.
For `COc1ccc2c(c1)c(CC(=O)[Se]CC#N)c(C)n2C(=O)c1ccc(Cl)cc1` [I.4d], in that order: 20 µM (≈ 9.2 µg/mL), 45.3 µM and 33.7 µM.
The matching figures for `COc1ccc2c(c1)c(CC(=O)[Se]CCC#N)c(C)n2C(=O)c1ccc(Cl)cc1` [I.4e]: 5.72 µM (≈ 2.71 µg/mL), 45.5 µM and 42.1 µM.
The matching figures for `CC(=O)Oc1ccccc1C(=O)[Se][Se]C(=O)c1ccccc1OC(C)=O` [II.1]: 8.43 µM (≈ 4.08 µg/mL), 101 µM and 15.1 µM.
Regarding `COc1ccc2c(c1)c(CC(=O)[Se][Se]C(=O)Cc1c(C)n(C(=O)c3ccc(Cl)cc3)c3ccc(OC)cc13)c(C)n2C(=O)c1ccc(Cl)cc1` [II.2], the solubility in data set [1] (setting [2]) was determined as 0.132 µM (≈ 0.111 µg/mL); in data set [1] (setting [3]) it was 7.96 µM; in data set [1] (setting [4]) it was 7.6 µM.
For `COc1ccc2cc([C@H](C)C(=O)[Se][Se]C(=O)[C@@H](C)c3ccc4cc(OC)ccc4c3)ccc2c1` [II.3], in that order: 0.605 µM (≈ 0.354 µg/mL), 0.219 µM and 6.14 µM.
Consider `CC(C(=O)[Se][Se]C(=O)C(C)c1cccc(C(=O)c2ccccc2)c1)c1cccc(C(=O)c2ccccc2)c1` (centres unmarked) [II.4], for which the solubility came out at 5.57 µM (≈ 3.52 µg/mL) in data set [1] (setting [2]), 27 µM in data set [1] (setting [3]) and 17.7 µM in data set [1] (setting [4]).
For `CC(C)Cc1ccc(C(C)C(=O)[Se][Se]C(=O)C(C)c2ccc(CC(C)C)cc2)cc1` (centres unmarked) [II.5], the solubility in data set [1] (setting [2]) is 21.2 µM (≈ 11.4 µg/mL); in data set [1] (setting [3]), 5420 µM; in data set [1] (setting [4]), 7500 µM. For the same molecule, the “Improvement of water solubility after exposure to β- and γ-CD (in words)” value in data set [1] was “remarkable improvement; also recorded: remarkable increase; also recorded: almost two orders of magnitude”. In addition, the “Increase in water solubility with β-CD” value in data set [1] (versus compound alone, D2O) was “up to 250 fold”. For the same molecule, the “Increase in water solubility with γ-CD” value in data set [1] (versus compound alone, D2O) is on record as not above 350 fold. Moreover, the “Anticancer properties (in words)” value in the data set on colon cancer is “potent anticancer properties”.
